Assay results taken from US20220017468A1, “ISOQUINOLINE COMPOUNDS AND THEIR USE IN TREATING AhR IMBALANCE” (Dermavant Sciences GmbH, priority 2020, published 2022).

How the values were obtained:
AhR = molecular target: T1, AhR (Homo sapiens, UniProt P35869); experiment: CYP1A1-bla LS-180 AhR antagonist assay; type: cell-based; conditions: competition of FICZ- or TCDD-induced AhR activation
T1 construct: LS-180 cells stably transfected with a CYP1A1 promoter-linked beta-lactamase gene reporter construct; endogenous in cells; host or cells: CYP1A1-bla LS-180 cells
T1 sequence (P35869 11-848): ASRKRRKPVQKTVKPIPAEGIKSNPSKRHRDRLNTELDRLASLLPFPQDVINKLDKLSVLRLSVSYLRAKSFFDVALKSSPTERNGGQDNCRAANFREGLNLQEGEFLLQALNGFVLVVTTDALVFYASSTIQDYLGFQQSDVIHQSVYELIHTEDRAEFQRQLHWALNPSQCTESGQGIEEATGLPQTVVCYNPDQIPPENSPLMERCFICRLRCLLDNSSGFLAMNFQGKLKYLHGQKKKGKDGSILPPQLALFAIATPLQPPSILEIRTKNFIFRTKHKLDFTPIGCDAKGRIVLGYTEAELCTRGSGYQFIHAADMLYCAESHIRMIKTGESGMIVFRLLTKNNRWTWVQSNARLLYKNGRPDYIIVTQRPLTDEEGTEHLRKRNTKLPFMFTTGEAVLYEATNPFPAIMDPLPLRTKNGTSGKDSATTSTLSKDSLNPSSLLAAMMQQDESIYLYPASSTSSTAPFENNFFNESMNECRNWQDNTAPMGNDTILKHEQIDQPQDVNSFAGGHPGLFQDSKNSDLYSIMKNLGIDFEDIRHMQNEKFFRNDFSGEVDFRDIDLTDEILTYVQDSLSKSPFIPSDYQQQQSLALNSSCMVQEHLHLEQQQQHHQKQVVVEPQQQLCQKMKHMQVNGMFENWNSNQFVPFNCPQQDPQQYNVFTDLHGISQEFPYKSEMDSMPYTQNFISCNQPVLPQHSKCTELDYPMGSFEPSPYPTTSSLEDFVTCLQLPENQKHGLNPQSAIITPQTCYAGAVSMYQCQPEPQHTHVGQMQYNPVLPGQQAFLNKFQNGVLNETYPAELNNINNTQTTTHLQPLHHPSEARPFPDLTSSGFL
Description: A similar assay was used to evaluate the antagonist capacity of compounds. CYP1A1-bla LS-180 cells in exponential growth phase were washed twice with DPBS then seeded into 96-well microplates (50,000 cells/well) and allowed to adhere. Either FICZ or TCDD was added as an agonist and prepared compounds (2× working concentrations in complete media) were added 2 hours later. Cells were incubated for ˜20 hrs, after which compounds were tested for their ability to compete FICZ- or TCDD-induced AhR activation as a means to evaluate potential allosteric or partial agonist activity. The LiveBLAzer FRET B/G β-lactamase substrate was added in the final hour of incubation and resulting blue/green fluorescence was measured using a 96-well microplate reader, as described above.

[1] = metabolic stability in hepatocytes, dog; type: in vitro ADME

CC(C)c1c(O)cc(-c2cc3ccccc3cn2)cc1O
AhR antagonist assay result (AhR): negative
half-life at 0.5 μM [1]: 31.9 min
CLint, hep ([1]; 0.5 μM): 7.39 mL/min/g liver
CLint scaled at 0.5 μM ([1]; read-out: Scaled CLint, hep): 240 mL/min/kg
